Measured values from ChEMBL document CHEMBL1139683, “Pyridone derivatives as potent, orally bioavailable VLA-4 integrin antagonists” (Bioorg Med Chem Lett, 2006).

Legend:
Rattus norvegicus = organism: Rattus norvegicus; experiment: Dose normalised AUC (0-8 hrs) in rat; assay type: ADME, organism-based; parameters: time < 8 hr; conditions: in vivo
Integrin alpha-4/beta-1 = Integrin alpha-4/beta-1 (Homo sapiens, UniProt P05556+P13612); experiment: Inhibition of integrin alpha-4-beta-1 receptor expressed in Jurkat J6 cells by SPA; assay type: cell-based
Chain of Integrin alpha-4/beta-1 (P05556 whole entry): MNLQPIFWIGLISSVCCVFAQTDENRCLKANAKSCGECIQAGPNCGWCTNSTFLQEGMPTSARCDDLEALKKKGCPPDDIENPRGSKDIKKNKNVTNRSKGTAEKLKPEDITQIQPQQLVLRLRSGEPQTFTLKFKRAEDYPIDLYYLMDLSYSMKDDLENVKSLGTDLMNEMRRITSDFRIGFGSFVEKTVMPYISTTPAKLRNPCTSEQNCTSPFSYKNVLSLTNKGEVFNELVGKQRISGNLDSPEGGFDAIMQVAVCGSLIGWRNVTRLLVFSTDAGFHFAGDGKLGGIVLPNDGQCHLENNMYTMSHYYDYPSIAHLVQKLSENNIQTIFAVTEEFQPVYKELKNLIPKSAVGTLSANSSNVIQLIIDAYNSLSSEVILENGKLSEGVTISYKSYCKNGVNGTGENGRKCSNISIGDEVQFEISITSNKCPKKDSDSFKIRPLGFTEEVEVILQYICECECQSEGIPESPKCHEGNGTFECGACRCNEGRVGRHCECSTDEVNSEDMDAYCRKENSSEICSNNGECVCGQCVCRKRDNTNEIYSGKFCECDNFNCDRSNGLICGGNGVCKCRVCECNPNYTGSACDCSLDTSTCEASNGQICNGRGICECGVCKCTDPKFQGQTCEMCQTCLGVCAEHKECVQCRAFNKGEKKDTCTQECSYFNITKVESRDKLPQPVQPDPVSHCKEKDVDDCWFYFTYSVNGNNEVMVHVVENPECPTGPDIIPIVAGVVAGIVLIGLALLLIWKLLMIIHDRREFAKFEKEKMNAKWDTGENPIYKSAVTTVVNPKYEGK
Chain of Integrin alpha-4/beta-1 (P13612 whole entry): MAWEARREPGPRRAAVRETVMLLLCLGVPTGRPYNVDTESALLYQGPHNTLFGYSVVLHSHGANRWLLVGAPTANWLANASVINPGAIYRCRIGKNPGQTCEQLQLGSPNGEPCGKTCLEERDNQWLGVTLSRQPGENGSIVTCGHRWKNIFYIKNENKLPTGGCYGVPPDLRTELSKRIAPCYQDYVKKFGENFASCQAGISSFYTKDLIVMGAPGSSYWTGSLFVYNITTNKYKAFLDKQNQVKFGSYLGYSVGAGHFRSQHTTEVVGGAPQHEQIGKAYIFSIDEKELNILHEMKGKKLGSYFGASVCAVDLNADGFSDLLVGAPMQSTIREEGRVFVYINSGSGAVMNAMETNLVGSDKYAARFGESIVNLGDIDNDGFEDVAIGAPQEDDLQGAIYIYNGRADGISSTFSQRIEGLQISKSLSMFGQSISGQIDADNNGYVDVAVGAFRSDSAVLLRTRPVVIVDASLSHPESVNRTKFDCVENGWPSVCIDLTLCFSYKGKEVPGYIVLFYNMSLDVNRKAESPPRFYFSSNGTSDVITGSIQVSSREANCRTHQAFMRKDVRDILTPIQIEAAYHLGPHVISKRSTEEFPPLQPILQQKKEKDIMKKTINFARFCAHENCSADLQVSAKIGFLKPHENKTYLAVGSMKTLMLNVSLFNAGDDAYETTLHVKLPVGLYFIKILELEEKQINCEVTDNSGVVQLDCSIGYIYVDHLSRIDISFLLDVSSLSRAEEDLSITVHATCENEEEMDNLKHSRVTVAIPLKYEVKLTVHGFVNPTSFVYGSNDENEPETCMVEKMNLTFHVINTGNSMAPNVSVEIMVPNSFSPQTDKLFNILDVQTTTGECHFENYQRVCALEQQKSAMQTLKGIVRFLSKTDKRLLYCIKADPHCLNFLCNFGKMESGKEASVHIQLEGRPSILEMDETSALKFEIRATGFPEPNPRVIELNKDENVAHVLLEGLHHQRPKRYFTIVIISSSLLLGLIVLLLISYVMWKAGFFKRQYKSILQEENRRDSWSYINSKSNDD

[1] = Clearance in iv dosed rat; assay type: ADME, organism-based; conditions: in vivo
[2] = Volume of distribution of steady state in rat; assay type: ADME, organism-based; conditions: in vivo, read-out: Vss
[3] = Half life in rat; assay type: ADME, organism-based; conditions: in vivo
[4] = Bioavailability in Sprague-Dawley rat at 1 mg/kg, iv and 3 mg/kg, po; assay type: ADME, organism-based; conditions: in vivo

| Compound | Ki (Integrin alpha-4/beta-1) | other results |
| --- | --- | --- |
| COc1cc(-c2cccn(Cc3ccc(CCC(=O)O)cc3)c2=O)ccc1NC(=O)Nc1ccccc1C | – | AUC (Rattus norvegicus): 6 kg·min/L |
| Cc1ccccc1NC(=O)Nc1ccc(-c2cccn(Cc3ccc(CCC(=O)O)cc3)c2=O)cc1 | 2.51 nM | AUC (Rattus norvegicus): 3 kg·min/L |
| COc1cc(-c2cccn(Cc3ccc(CCC(=O)O)cc3)c2=O)ccc1NC(=O)Nc1cc(C)ccc1C | 7.94 nM | – |
| COc1cc(-c2cccn(Cc3ccc([C@@H](C)CC(=O)O)cc3)c2=O)ccc1NC(=O)Nc1ccccc1C | 1 nM | – |
| Cc1ccccc1NC(=O)Nc1ccc(-c2cccn(Cc3ccc([C@@H](C)CC(=O)O)cc3)c2=O)c(C)c1 | 2.51 nM | – |
| Cc1ccccc1NC(=O)Nc1ccc(-c2cccn(Cc3ccc([C@@H](C)CC(=O)O)cc3)c2=O)c(Cl)c1 | 2 nM | – |
| Cc1ccccc1NC(=O)Nc1ccc(-c2cccn(Cc3ccc([C@H](C)CC(=O)O)cc3)c2=O)c(C)c1 | 1 nM | – |
| Cc1ccccc1NC(=O)Nc1ccc(-c2cccn(Cc3ccc([C@H](C)CC(=O)O)cc3)c2=O)cc1 | 1 nM | clearance [1]: 16 mL/min/kg; Vd [2]: 0.6 L/kg; half-life [3]: 78 min; bioavailability [4]: 22%; AUC (Rattus norvegicus): 14 kg·min/L |
| COc1cc(-c2cccn(Cc3ccc(CCC(=O)O)cc3)c2=O)ccc1NC(=O)Nc1ccccc1Br | 5.01 nM | – |
| COc1cc(-c2cccn(Cc3ccc(CCC(=O)O)cc3)c2=O)ccc1NC(=O)Nc1ccc(C)cc1C | 25.1 nM | – |
| Cc1ccccc1NC(=O)Nc1ccc(-c2cccn(Cc3ccc([C@@H](C)CC(=O)O)cc3)c2=O)cc1C | 20 nM | – |
| COc1cc(-c2cccn(Cc3ccc(CCC(=O)O)cc3)c2=O)ccc1NC(=O)Nc1c(C)cccc1C | 2 nM | – |
| Cc1ccccc1NC(=O)Nc1ccc(-c2cccn(Cc3ccc([C@H](C)CC(=O)O)cc3)c2=O)c(OC(F)(F)F)c1 | 3.98 nM | – |
| COc1cc(-c2cccn(Cc3ccc(CCC(=O)O)cc3)c2=O)ccc1NC(=O)Nc1ccccc1C(C)C | 316 nM | – |
| Cc1ccccc1NC(=O)Nc1ccc(-c2cccn(Cc3ccc([C@@H](C)CC(=O)O)cc3)c2=O)c(OC(F)(F)F)c1 | 20 nM | – |
| COc1cc(-c2cccn(Cc3ccc(CCC(=O)O)cc3)c2=O)ccc1NC(=O)Nc1ccccc1NC(C)=O | 6.31 nM | – |
| Cc1ccccc1NC(=O)Nc1ccc(-c2cccn(Cc3ccc([C@@H](C)CC(=O)O)cc3)c2=O)cc1Cl | 25.1 nM | – |
| CCOc1cc(NC(=O)Nc2ccccc2C)ccc1-c1cccn(Cc2ccc([C@@H](C)CC(=O)O)cc2)c1=O | 5.01 nM | – |
| Cc1ccccc1NC(=O)Nc1ccc(-c2cccn(Cc3ccc([C@H](C)CC(=O)O)cc3)c2=O)c(Cl)c1 | 1 nM | – |
| COc1ccccc1NC(=O)Nc1ccc(-c2cccn(Cc3ccc(CCC(=O)O)cc3)c2=O)cc1OC | 6.31 nM | – |
| COc1cc(-c2cccn(Cc3ccc(CCC(=O)O)cc3)c2=O)ccc1NC(=O)Nc1cccc(C)c1C | 25.1 nM | – |
| Cc1ccccc1NC(=O)Nc1ccc(-c2cccn(Cc3ccc([C@@H](C)CC(=O)O)cc3)c2=O)cc1 | 2.51 nM | – |
| Cc1ccccc1NC(=O)Nc1ccc(-c2cccn(Cc3ccc([C@H](C)CC(=O)O)cc3)c2=O)cc1Cl | 0.794 nM | – |
| CCOc1cc(NC(=O)Nc2ccccc2C)ccc1-c1cccn(Cc2ccc([C@H](C)CC(=O)O)cc2)c1=O | 2 nM | – |
| CCc1cc(NC(=O)Nc2ccccc2C)ccc1-c1cccn(Cc2ccc([C@@H](C)CC(=O)O)cc2)c1=O | 50.1 nM | – |
| CCc1cc(NC(=O)Nc2ccccc2C)ccc1-c1cccn(Cc2ccc([C@H](C)CC(=O)O)cc2)c1=O | 6.31 nM | – |
| Cc1ccccc1NC(=O)Nc1ccc(-c2cccn(Cc3ccc([C@H](C)CC(=O)O)cc3)c2=O)cc1C | 2.51 nM | – |
| COc1cc(-c2cccn(Cc3ccc(CCC(=O)O)cc3)c2=O)ccc1NC(=O)Nc1ccccc1 | 1.58 nM | – |
| COc1cc(-c2cccn(Cc3ccc([C@H](C)CC(=O)O)cc3)c2=O)ccc1NC(=O)Nc1ccccc1C | 0.794 nM | clearance [1]: 9 mL/min/kg; Vd [2]: 0.6 L/kg; half-life [3]: 84 min; bioavailability [4]: 121%; AUC (Rattus norvegicus): 154 kg·min/L |
